pIC50, pKi: −log10 of the molar value.
Experiments:
MCF7 [1] = assay: Antiproliferative activity against human MCF-7 cells assessed as cell growth inhibition measured after 72 hrs by SRB assay; type: functional, cell-based; details: MCF7, 72 h
Carbonic anhydrase 12 = Carbonic anhydrase 12 (Homo sapiens, UniProt O43570); assay: Inhibition of human CA12 by stopped-flow carbon dioxide hydration assay
MCF7 [2] = assay: Induction of apoptosis in human MCF7 cells assessed as fold change in caspase-9 expression at IC50 by ELISA relative to control; type: functional
HepG2 [3] = assay: Antiproliferative activity against human HepG2 cells assessed as cell growth inhibition measured after 72 hrs by SRB assay; type: functional, cell-based; details: HepG2, 72 h
Carbonic anhydrase 2 = Carbonic anhydrase 2 (Homo sapiens, UniProt P00918); assay: Inhibition of human CA2 by stopped-flow carbon dioxide hydration assay
HepG2 [4] = assay: Antiproliferative activity against human HepG2 cells assessed as inhibition of cell growth at 100 microM measured after 72 hrs by SRB assay; type: functional
MCF7 [5] = assay: Induction of cell cycle arrest in human MCF7 cells assessed as accumulation at S phase at IC50 measured after 24 hrs by propidium iodide/RNase staining based flow cytometry (reference value: 29.88%); type: functional
MCF7 [6] = assay: Induction of apoptosis in human MCF7 cells assessed as Bax expression at IC50 by ELISA (reference value: 45.46 +/- 3.6 pg/ml); type: functional
WI-38 = assay: Cytotoxicity against human WI-38 cells assessed as reduction in cell viability after 72 hrs by SRB assay; type: cell-based; details: WI-38, 72 h
[7] = biological target: T1, Prostaglandin G/H synthase 1 (Ovis aries, UniProt P05979); assay: Inhibition of ovine COX1 by colorimetric analysis
T1 sequence (P05979 whole entry): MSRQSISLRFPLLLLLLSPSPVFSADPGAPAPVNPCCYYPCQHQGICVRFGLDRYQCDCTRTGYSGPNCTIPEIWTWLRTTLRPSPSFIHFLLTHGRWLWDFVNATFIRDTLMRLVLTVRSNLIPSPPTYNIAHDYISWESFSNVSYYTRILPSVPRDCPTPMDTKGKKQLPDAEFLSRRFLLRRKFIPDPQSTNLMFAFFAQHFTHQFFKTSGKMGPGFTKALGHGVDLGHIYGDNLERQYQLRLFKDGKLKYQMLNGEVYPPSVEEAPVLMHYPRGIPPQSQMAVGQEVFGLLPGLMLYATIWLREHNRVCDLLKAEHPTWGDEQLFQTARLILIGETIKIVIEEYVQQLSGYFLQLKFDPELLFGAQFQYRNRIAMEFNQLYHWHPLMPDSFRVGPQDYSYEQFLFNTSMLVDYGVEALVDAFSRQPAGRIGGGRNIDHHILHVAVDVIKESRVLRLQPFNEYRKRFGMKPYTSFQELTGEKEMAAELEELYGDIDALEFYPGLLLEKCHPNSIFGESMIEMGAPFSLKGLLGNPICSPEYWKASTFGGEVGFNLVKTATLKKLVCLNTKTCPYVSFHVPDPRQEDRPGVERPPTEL

MCF7 [8] = assay: Induction of apoptosis in human MCF7 cells assessed as fold change in Bcl-2 expression at IC50 by ELISA relative to control; type: functional
MCF7 [9] = assay: Induction of apoptosis in human MCF-7 cells assessed as early apoptotic cells at IC50 measured after 24 hrs by Annexin V-FITC/propidium iodide staining based flow cytometry (reference value: 0.4%); type: functional
A549 [10] = assay: Antiproliferative activity against human A549 cells assessed as inhibition of cell growth at 100 microM measured after 72 hrs by SRB assay; type: functional
HT-29 = assay: Cytotoxicity against human HT-29 cells assessed as reduction in cell viability incubated for 24 hrs by MTS assay; type: functional, cell-based; details: HT-29, 24 h
MCF7 [11] = assay: Induction of cell cycle arrest in human MCF7 cells assessed as increase in accumulation at pre-G1 phase at IC50 measured after 24 hrs by propidium iodide/RNase staining based flow cytometry relative to control; type: functional
MCF7 [12] = assay: Induction of apoptosis in human MCF7 cells assessed as caspase-9 expression at IC50 by ELISA (reference value: 1.77 +/- 0.1 ng/ml); type: functional
MCF7 [13] = assay: Induction of cell cycle arrest in human MCF7 cells assessed as reduction in accumulation at G0/G1 phase at IC50 measured after 24 hrs by propidium iodide/RNase staining based flow cytometry relative to control; type: functional
MCF7 [14] = assay: Induction of cell cycle arrest in human MCF7 cells assessed as accumulation at pre-G1 phase at IC50 measured after 24 hrs by propidium iodide/RNase staining based flow cytometry (reference value: 1.96%); type: functional
MCF7 [15] = assay: Induction of apoptosis in human MCF-7 cells assessed as late apoptotic cells at IC50 measured after 24 hrs by Annexin V-FITC/propidium iodide staining based flow cytometry (reference value: […]); type: functional
THP-1 = assay: Cytotoxicity against PMA/LPS-challenged human THP1 cells assessed as reduction in cell viability incubated for 24 hrs by MTS assay; type: functional, cell-based; details: THP-1, 24 h
MCF7 [16] = assay: Induction of apoptosis in human MCF-7 cells assessed as increase in total apoptotic cells at IC50 measured after 24 hrs by Annexin V-FITC/propidium iodide staining based flow cytometry relative to 5-FU; type: functional
MCF7 [17] = assay: Induction of apoptosis in human MCF-7 cells assessed as necrotic cells at IC50 measured after 24 hrs by Annexin V-FITC/propidium iodide staining based flow cytometry (reference value: 1.27%); type: functional
MCF7 [18] = assay: Induction of cell cycle arrest in human MCF7 cells assessed as accumulation at G2/M phase at IC50 measured after 24 hrs by propidium iodide/RNase staining based flow cytometry (reference value: 18.4%); type: functional
MCF7 [19] = assay: Induction of cell cycle arrest in human MCF7 cells assessed as accumulation at G0/G1 phase at IC50 measured after 24 hrs by propidium iodide/RNase staining based flow cytometry (reference value: 51.72%); type: functional
MCF7 [20] = assay: Induction of cell cycle arrest in human MCF7 cells assessed as increase in accumulation at G2/M phase at IC50 measured after 24 hrs by propidium iodide/RNase staining based flow cytometry relative to control; type: functional
MCF7 [21] = assay: Induction of apoptosis in human MCF-7 cells assessed as total apoptotic cells at IC50 measured after 24 hrs by Annexin V-FITC/propidium iodide staining based flow cytometry (reference value: 0.69%); type: functional
Carbonic anhydrase 9 = Carbonic anhydrase 9 (Homo sapiens, UniProt Q16790); assay: Inhibition of human CA9 by stopped-flow carbon dioxide hydration assay
MCF7 [22] = assay: Induction of apoptosis in human MCF7 cells assessed as Bcl-2 expression at IC50 by ELISA (reference value: 7.49 +/- 0.1 ng/ml); type: functional
A549 [23] = assay: Antiproliferative activity against human A549 cells assessed as cell growth inhibition measured after 72 hrs by SRB assay; type: functional, cell-based; details: A549, 72 h
[24] = Inhibition of soya bean 15-LOX; set-up: species or system Glycine max
Carbonic anhydrase 1 = Carbonic anhydrase 1 (Homo sapiens, UniProt P00915); assay: Inhibition of human CA1 by stopped-flow carbon dioxide hydration assay
MCF7 [25] = assay: Induction of apoptosis in human MCF7 cells assessed as fold change in Bax expression at IC50 by ELISA relative to control; type: functional
MCF7 [26] = assay: Antiproliferative activity against human MCF-7 cells assessed as inhibition of cell growth at 100 microM measured after 72 hrs by SRB assay; type: functional

Sequence of Carbonic anhydrase 1 (P00915 whole entry): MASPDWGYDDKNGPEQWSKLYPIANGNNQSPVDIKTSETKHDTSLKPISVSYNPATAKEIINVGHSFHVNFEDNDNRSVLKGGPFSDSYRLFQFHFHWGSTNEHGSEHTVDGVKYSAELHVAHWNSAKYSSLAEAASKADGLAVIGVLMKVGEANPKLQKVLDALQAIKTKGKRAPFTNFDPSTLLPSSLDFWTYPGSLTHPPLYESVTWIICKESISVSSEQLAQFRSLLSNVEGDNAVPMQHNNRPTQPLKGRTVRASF
Sequence of Carbonic anhydrase 12 (O43570 whole entry): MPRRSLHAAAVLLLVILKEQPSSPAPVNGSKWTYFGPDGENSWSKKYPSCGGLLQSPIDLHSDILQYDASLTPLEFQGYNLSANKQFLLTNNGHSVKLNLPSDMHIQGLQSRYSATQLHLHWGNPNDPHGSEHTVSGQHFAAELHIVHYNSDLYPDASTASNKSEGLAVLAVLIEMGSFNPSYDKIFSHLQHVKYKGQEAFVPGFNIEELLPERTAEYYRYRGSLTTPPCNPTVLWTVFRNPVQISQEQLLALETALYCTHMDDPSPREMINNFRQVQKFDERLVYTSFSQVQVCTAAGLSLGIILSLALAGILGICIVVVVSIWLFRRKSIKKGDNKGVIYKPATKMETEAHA

For `C/C(=N\Nc1nc(-c2ccc(Cl)cc2)cs1)c1nnn(-c2ccc(Cl)cc2)c1C`, the pIC50 (MCF7 [1]) was 5.57, the pKi (Carbonic anhydrase 12) was under 4.00 and the “fold change (FC)” value (MCF7 [2]) was 7.36. For the same compound, the pIC50 (HepG2 [3]) was 5.63, the pKi (Carbonic anhydrase 2) was under 4.00 and the inhibition at 100 µM (HepG2 [4]) was 74.4%. It also gave an Activity (MCF7 [5]) of 24.89%, an Activity (MCF7 [6]) of 227.2 pg/mL and a pIC50 (WI-38) of 3.42. The pIC50 [7] was 4.92, the “fold change (FC)” value (MCF7 [8]) was 0.54 and the Activity (MCF7 [9]) was 5.88%. For the same compound, the inhibition at 100 µM (A549 [10]) was 77.5%, the pIC50 (HT-29) was 4.44 and the “fold change (FC)” value (MCF7 [11]) was 9.9. The Activity (MCF7 [12]) was 13.02 ng/mL, the “fold change (FC)” value (MCF7 [13]) was 1.4 and the Activity (MCF7 [14]) was 19.36%. For the same compound, the Activity (MCF7 [15]) was 11.29%, the pIC50 (THP-1) was 3.88 and the Activity (MCF7 [16]) was 70%. For the same compound, the Activity (MCF7 [17]) was 2.19%, the Activity (MCF7 [18]) was 38.7% and the Activity (MCF7 [19]) was 36.41%. For the same compound, the “fold change (FC)” value (MCF7 [20]) was 2.1, the Activity (MCF7 [21]) was 17.17% and the pKi (Carbonic anhydrase 9) was under 4.00. For the same compound, the Activity (MCF7 [22]) was 4.02 ng/mL, the pIC50 (A549 [23]) was 5.05 and the pIC50 [24] was 5.77. The pKi (Carbonic anhydrase 1) was under 4.00, the “fold change (FC)” value (MCF7 [25]) was 4.99 and the inhibition at 100 µM (MCF7 [26]) was 91.3%.
